Assay results: PMC3214022, “Plasmodium falciparum Parasites Are Killed by a Transition State Analogue of Purine Nucleoside Phosphorylase in a Primate Animal Model” (PLoS ONE, 2011)

Assay: Weights, CBC, blood chemistry and signs of toxicity, Table S1 sheet PD-2 (infected Aotus, twice a day for seven days)
Format: in vivo, Aotus lemurinus lemurinus
Settings: oral 10 mg/kg twice a day/7 days
Procedure: Laboratory bred Aotus lemurinus lemurinus monkeys (0.75–0.89 kg) were maintained as described. […] Blood samples were collected before the treatment started (t = 0), 0.05 h, 0.5 h, 1 h, 2 h, 6 h, 24 h, 48 h, and 6, 12 and 18 days after the first dose from each monkey and processed as described below. Pharmacokinetic parameters were calculated using PKSolver. For efficacy studies, Aotus monkeys were inoculated intravenously with 5×10^6 parasites of the FVO strain of P. falciparum in an approved treatment protocol. […] Parasitaemia was determined by Giemsa-stained thick blood smears prepared daily from the marginal ear vein [41]. Blood samples were collected from each monkey and transferred to tubes containing lithium heparin, centrifuged and both plasma and blood cells were frozen at −80 °C until analysis. Animals received a physical examination and blood chemistry profiles were monitored after treatment as described previously. Any monkey not responding appropriately to treatment was cured of its infection with mefloquine (40 mg kg^−1). […] The day of clearance is defined as the first of three consecutive days in which the thick blood films are parasite negative. The day of recrudescence is the first of three consecutive days of positive thick blood films after a period of clearance. Suppression is defined as a transient decrease in the parasite count post-treatment without clearance.

Structure (SMILES): Nc1nc2c(CN3CC(O)C(CO)C3)c[nH]c2c(=O)[nH]1 (stereo not shown) [BCX4945, 4′-deaza-1′-aza-2′-deoxy-1′-(9-methylene)-Immucillin-G]
- WEIGHT (26027 Male (ITM3), day 15): 890 g
- Blood Urea Nitrogen (26027 Male (ITM3), day 18): 20.6 mg/dL
- Creatine (26027 Male (ITM3), day 18): 0.5 mg/dL
- Erythrocytes (26027 Male (ITM3), day 18): 4.74e+06 µL⁻¹
- Glutamate Pyruvate Transaminase (26027 Male (ITM3), day 18): 27.5 U/L
- Granulocytes (%) (26027 Male (ITM3), day 18): 37%
- Granulocytes (x 103/ul) (26027 Male (ITM3), day 18): 3 x 103/ul
- Hematocrit (26027 Male (ITM3), day 18): 39.9%
- Hemoglobin (26027 Male (ITM3), day 18): 14.1 g/dL
- Leucocytes (26027 Male (ITM3), day 18): 8100 µL⁻¹
- Lymphocytes (%) (26027 Male (ITM3), day 18): 58.1%
- Lymphocytes (x 103/ul) (26027 Male (ITM3), day 18): 4.7 x 103/ul
- Mean Corpuscular Hemoglobin (26027 Male (ITM3), day 18): 29.9 pg
- Mean Corpuscular Volume (26027 Male (ITM3), day 18): 84.3 fL
- Mean Hemoglobin Content (26027 Male (ITM3), day 18): 35.4 g/dL
- Mean Platelet Volume (26027 Male (ITM3), day 18): 11.7 fL
- Monocytes (%) (26027 Male (ITM3), day 18): 4.9%
- Monocytes (x 103/ul) (26027 Male (ITM3), day 18): 0.4 x 103/ul
- Platelets (26027 Male (ITM3), day 18): 208000 µL⁻¹
- Red Cell Distribution Width (26027 Male (ITM3), day 18): 17.7%
- Reticulocytes (26027 Male (ITM3), day 18): 1.9%
- WEIGHT (26027 Male (ITM3), day 18): 900 g
- Erythrocytes (26027 Male (ITM3), day 25): 4.04e+06 µL⁻¹
- Granulocytes (%) (26027 Male (ITM3), day 25): 17.2%
- Granulocytes (x 103/ul) (26027 Male (ITM3), day 25): 2.5 x 103/ul
- Hematocrit (26027 Male (ITM3), day 25): 35.7%
- Hemoglobin (26027 Male (ITM3), day 25): 12.2 g/dL
- Leucocytes (26027 Male (ITM3), day 25): 14500 µL⁻¹
- Lymphocytes (%) (26027 Male (ITM3), day 25): 74.8%
- Lymphocytes (x 103/ul) (26027 Male (ITM3), day 25): 10.8 x 103/ul
- Mean Corpuscular Hemoglobin (26027 Male (ITM3), day 25): 30.1 pg
- Mean Corpuscular Volume (26027 Male (ITM3), day 25): 88.4 fL
- Mean Hemoglobin Content (26027 Male (ITM3), day 25): 34 g/dL
- Mean Platelet Volume (26027 Male (ITM3), day 25): 13.3 fL
- Monocytes (%) (26027 Male (ITM3), day 25): 8%
- Monocytes (x 103/ul) (26027 Male (ITM3), day 25): 1.2 x 103/ul
- Platelets (26027 Male (ITM3), day 25): 118000 µL⁻¹
- Red Cell Distribution Width (26027 Male (ITM3), day 25): 17.3%
- Reticulocytes (26027 Male (ITM3), day 25): 3.1%
- WEIGHT (26027 Male (ITM3), day 25): 888 g
- Blood Urea Nitrogen (26027 Male (ITM3), day -10): 18.35 mg/dL
- Creatine (26027 Male (ITM3), day -10): 0.5 mg/dL
- Erythrocytes (26027 Male (ITM3), day -10): 5.73e+06 µL⁻¹
- Glutamate Pyruvate Transaminase (26027 Male (ITM3), day -10): 23.9 U/L
- Granulocytes (%) (26027 Male (ITM3), day -10): 15.9%
- Granulocytes (x 103/ul) (26027 Male (ITM3), day -10): 1.6 x 103/ul
- Hematocrit (26027 Male (ITM3), day -10): 46.1%
- Hemoglobin (26027 Male (ITM3), day -10): 17.0 g/dL
- Leucocytes (26027 Male (ITM3), day -10): 10200 µL⁻¹
- Lymphocytes (%) (26027 Male (ITM3), day -10): 78%
- Lymphocytes (x 103/ul) (26027 Male (ITM3), day -10): 8 x 103/ul
- Mean Corpuscular Hemoglobin (26027 Male (ITM3), day -10): 29.6 pg
- Mean Corpuscular Volume (26027 Male (ITM3), day -10): 80.5 fL
- Mean Hemoglobin Content (26027 Male (ITM3), day -10): 36.8 g/dL
- Mean Platelet Volume (26027 Male (ITM3), day -10): 11.9 fL
- Monocytes (%) (26027 Male (ITM3), day -10): 6.1%
- Monocytes (x 103/ul) (26027 Male (ITM3), day -10): 0.6 x 103/ul
- Platelets (26027 Male (ITM3), day -10): 253000 µL⁻¹
- Red Cell Distribution Width (26027 Male (ITM3), day -10): 11.7%
- Reticulocytes (26027 Male (ITM3), day -10): 1.1%
- WEIGHT (26027 Male (ITM3), day -10): 895 g
- Blood Urea Nitrogen (26047 Female (ITM1), day 8): 18.65 mg/dL
- Creatine (26047 Female (ITM1), day 8): 0.539 mg/dL
- Erythrocytes (26047 Female (ITM1), day 8): 4.63e+06 µL⁻¹
- Glutamate Pyruvate Transaminase (26047 Female (ITM1), day 8): 13.2 U/L
- Granulocytes (%) (26047 Female (ITM1), day 8): 10%
- Granulocytes (x 103/ul) (26047 Female (ITM1), day 8): 1.3 x 103/ul
- Hematocrit (26047 Female (ITM1), day 8): 36.7%
- Hemoglobin (26047 Female (ITM1), day 8): 13.2 g/dL
- Leucocytes (26047 Female (ITM1), day 8): 12900 µL⁻¹
- Lymphocytes (%) (26047 Female (ITM1), day 8): 74.5%
- Lymphocytes (x 103/ul) (26047 Female (ITM1), day 8): 9.6 x 103/ul
- Mean Corpuscular Hemoglobin (26047 Female (ITM1), day 8): 28.5 pg
- Mean Corpuscular Volume (26047 Female (ITM1), day 8): 79.3 fL
- Mean Hemoglobin Content (26047 Female (ITM1), day 8): 35.9 g/dL
- Mean Platelet Volume (26047 Female (ITM1), day 8): 9.7 fL
- Monocytes (%) (26047 Female (ITM1), day 8): 15.5%
- Monocytes (x 103/ul) (26047 Female (ITM1), day 8): 2 x 103/ul
- Platelets (26047 Female (ITM1), day 8): 297000 µL⁻¹
- Red Cell Distribution Width (26047 Female (ITM1), day 8): 12.5%
- Reticulocytes (26047 Female (ITM1), day 8): 2.8%
- WEIGHT (26047 Female (ITM1), day 8): 814 g
- Blood Urea Nitrogen (26047 Female (ITM1), day 12): 10.55 mg/dL
- Creatine (26047 Female (ITM1), day 12): 0.5 mg/dL
- Erythrocytes (26047 Female (ITM1), day 12): 4.11e+06 µL⁻¹
- Glutamate Pyruvate Transaminase (26047 Female (ITM1), day 12): 27.3 U/L
- Granulocytes (%) (26047 Female (ITM1), day 12): 21.3%
- Granulocytes (x 103/ul) (26047 Female (ITM1), day 12): 3.6 x 103/ul
- Hematocrit (26047 Female (ITM1), day 12): 32.7%
- Hemoglobin (26047 Female (ITM1), day 12): 11.6 g/dL
- Leucocytes (26047 Female (ITM1), day 12): 16800 µL⁻¹
